The results in this text go back to ChEMBL document CHEMBL5715954, “Silencing c-Myc translation as a therapeutic strategy through targeting PI3Kδ and CK1ε in hematological malignancies” (Blood, 2017).

Set-up in all cases: scale not given: the % may be the effect or the level left
The target of assay [1] is T1, Dual specificity mitogen-activated protein kinase kinase 7 (Homo sapiens) (UniProt O14733).
T1 sequence (whole entry): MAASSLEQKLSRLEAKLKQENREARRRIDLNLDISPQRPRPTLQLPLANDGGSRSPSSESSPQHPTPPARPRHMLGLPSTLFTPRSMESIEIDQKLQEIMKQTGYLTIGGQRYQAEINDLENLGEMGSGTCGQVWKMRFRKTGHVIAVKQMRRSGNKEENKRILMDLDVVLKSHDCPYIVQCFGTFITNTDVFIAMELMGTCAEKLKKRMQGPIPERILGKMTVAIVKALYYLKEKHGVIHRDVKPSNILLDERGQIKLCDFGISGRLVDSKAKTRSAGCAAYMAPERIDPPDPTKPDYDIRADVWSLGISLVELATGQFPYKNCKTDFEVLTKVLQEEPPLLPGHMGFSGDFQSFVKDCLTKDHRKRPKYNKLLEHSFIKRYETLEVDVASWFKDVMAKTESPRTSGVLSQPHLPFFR
Nature of the assay: Inhibition of human MKK7 assessed as enzyme activity at 1 uM using JNK (K55M) as substrate preincubated for 20 mins followed by [gamma-33P]-ATP addition and measured after 120 mins by radiometric Hot-SpotSM Kinase assay relative to control.

The target in assay [2] is Ephrin type-A receptor 2 (Homo sapiens) (UniProt P29317). Nature of the assay: Inhibition of human EPHA2 assessed as enzyme activity at 1 uM using poly[Glu:Tyr] (4:1) as substrate preincubated for 20 mins followed by [gamma-33P]-ATP addition and measured after 120 mins by radiometric Hot-SpotSM Kinase assay relative to control.
Assay [3] has as its target Casein kinase I isoform alpha (Homo sapiens) (UniProt P48729). Nature of the assay: Inhibition of human CK1a1 assessed as enzyme activity at 1 uM using KRRRAL[pS]VASLPGL as substrate preincubated for 20 mins followed by [gamma-33P]-ATP addition and measured after 120 mins by radiometric Hot-SpotSM Kinase assay relative to control.
Assay [4] addresses MAP/microtubule affinity-regulating kinase 3 (Homo sapiens) (UniProt P27448). The assay is described as follows: Inhibition of human MARK3 assessed as enzyme activity at 1 uM using KKKVSRSGLYRSPSMPENLNRPR as substrate preincubated for 20 mins followed by [gamma-33P]-ATP addition and measured after 120 mins by radiometric Hot-SpotSM Kinase assay relative to control.
The target of assay [5] is Serine/threonine-protein kinase OSR1 (Homo sapiens) (UniProt O95747). Nature of the assay: Inhibition of human OSR1 assessed as enzyme activity at 1 uM using RRHYYYDTHTNTYYLRTFGHNTRR as substrate preincubated for 20 mins followed by [gamma-33P]-ATP addition and measured after 120 mins by radiometric Hot-SpotSM Kinase assay relative to control.
The target of assay [6] is RAC-beta serine/threonine-protein kinase (Homo sapiens) (UniProt P31751). Nature of the assay: Inhibition of human AKT2 assessed as enzyme activity at 1 uM using KGSGSGRPRTSSFAEG as substrate preincubated for 20 mins followed by [gamma-33P]-ATP addition and measured after 120 mins by radiometric Hot-SpotSM Kinase assay relative to control.
The target in assay [7] is Serine/threonine-protein kinase 32B (Homo sapiens) (UniProt Q9NY57). The assay is described as follows: Inhibition of human STK32B assessed as enzyme activity at 1 uM using myelin basic protein as substrate preincubated for 20 mins followed by [gamma-33P]-ATP addition and measured after 120 mins by radiometric Hot-SpotSM Kinase assay relative to control.
In assay [8] the target is Focal adhesion kinase 1 (Homo sapiens) (UniProt Q05397). The assay is described as follows: Inhibition of human FAK assessed as enzyme activity at 1 uM using poly[Glu:Tyr] (4:1) as substrate preincubated for 20 mins followed by [gamma-33P]-ATP addition and measured after 120 mins by radiometric Hot-SpotSM Kinase assay relative to control.
Assay [9] deals with ALK tyrosine kinase receptor (Homo sapiens) (UniProt Q9UM73). Nature of the assay: Inhibition of human ALK assessed as enzyme activity at 1 uM using poly[Glu:Tyr] (4:1) as substrate preincubated for 20 mins followed by [gamma-33P]-ATP addition and measured after 120 mins by radiometric Hot-SpotSM Kinase assay relative to control.
The target in assay [10] is Serine/threonine-protein kinase NIM1 (Homo sapiens) (UniProt Q8IY84). The assay is described as follows: Inhibition of human NIM1 assessed as enzyme activity at 1 uM using KKKVSRSGLYRSPSMPENLNRPR as substrate preincubated for 20 mins followed by [gamma-33P]-ATP addition and measured after 120 mins by radiometric Hot-SpotSM Kinase assay relative to control.
Serine/threonine-protein kinase NIM1 (Homo sapiens), sequence (Q8IY84 whole entry): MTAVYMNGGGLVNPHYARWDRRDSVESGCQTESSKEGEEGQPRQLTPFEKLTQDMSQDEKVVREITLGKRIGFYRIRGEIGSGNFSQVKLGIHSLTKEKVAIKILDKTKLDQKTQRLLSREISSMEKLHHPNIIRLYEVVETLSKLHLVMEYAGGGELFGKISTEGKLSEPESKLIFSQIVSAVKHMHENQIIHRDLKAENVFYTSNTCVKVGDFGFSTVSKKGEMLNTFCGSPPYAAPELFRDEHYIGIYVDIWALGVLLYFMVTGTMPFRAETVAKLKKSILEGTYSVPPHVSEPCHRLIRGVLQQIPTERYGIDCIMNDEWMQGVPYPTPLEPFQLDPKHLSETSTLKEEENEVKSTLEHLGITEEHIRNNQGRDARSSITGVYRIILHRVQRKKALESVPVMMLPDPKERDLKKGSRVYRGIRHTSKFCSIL

ALK tyrosine kinase receptor (Homo sapiens), sequence (Q9UM73 19-1620 limits assumed): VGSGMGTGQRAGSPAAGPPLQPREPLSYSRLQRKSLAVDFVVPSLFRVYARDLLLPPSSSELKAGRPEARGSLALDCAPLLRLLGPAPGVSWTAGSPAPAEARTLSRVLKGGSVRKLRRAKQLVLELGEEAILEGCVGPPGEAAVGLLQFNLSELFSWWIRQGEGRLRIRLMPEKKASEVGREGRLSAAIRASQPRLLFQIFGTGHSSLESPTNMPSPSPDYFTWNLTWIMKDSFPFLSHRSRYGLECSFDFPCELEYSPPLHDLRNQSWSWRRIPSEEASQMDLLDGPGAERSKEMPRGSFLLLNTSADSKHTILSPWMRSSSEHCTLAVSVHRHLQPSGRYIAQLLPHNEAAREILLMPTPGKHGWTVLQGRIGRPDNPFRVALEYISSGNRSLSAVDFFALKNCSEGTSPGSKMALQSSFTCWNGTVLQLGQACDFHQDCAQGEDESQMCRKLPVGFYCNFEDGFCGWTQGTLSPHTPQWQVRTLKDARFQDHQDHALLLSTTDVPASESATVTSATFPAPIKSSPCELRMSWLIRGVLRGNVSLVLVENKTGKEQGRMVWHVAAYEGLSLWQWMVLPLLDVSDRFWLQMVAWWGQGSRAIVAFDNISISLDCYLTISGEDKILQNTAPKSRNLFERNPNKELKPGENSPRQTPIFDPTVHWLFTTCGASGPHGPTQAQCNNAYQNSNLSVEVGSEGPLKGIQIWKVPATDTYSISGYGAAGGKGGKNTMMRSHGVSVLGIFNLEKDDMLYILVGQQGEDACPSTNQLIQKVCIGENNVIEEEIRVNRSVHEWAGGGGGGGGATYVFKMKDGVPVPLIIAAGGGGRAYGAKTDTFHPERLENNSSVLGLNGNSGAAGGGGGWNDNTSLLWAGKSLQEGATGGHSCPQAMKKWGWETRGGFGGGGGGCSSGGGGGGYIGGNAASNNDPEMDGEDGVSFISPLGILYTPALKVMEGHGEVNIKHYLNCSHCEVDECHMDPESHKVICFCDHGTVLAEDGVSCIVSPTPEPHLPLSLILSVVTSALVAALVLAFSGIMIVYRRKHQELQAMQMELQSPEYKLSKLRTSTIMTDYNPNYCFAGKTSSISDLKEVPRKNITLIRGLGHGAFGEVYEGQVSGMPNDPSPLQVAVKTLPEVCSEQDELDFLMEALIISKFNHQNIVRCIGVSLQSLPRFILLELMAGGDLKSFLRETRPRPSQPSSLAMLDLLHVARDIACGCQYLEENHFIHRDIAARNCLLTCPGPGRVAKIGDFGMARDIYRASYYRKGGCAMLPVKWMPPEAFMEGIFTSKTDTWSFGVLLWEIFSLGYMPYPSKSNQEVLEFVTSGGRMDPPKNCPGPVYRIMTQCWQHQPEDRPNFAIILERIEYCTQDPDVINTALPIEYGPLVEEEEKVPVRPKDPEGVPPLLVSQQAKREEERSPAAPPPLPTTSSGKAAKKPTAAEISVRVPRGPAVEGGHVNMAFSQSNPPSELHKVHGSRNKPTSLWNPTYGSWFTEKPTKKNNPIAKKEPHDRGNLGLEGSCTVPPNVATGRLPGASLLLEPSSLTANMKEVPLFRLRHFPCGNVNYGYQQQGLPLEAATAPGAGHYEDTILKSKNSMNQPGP
Casein kinase I isoform alpha (Homo sapiens), sequence (P48729 2-337 limits assumed): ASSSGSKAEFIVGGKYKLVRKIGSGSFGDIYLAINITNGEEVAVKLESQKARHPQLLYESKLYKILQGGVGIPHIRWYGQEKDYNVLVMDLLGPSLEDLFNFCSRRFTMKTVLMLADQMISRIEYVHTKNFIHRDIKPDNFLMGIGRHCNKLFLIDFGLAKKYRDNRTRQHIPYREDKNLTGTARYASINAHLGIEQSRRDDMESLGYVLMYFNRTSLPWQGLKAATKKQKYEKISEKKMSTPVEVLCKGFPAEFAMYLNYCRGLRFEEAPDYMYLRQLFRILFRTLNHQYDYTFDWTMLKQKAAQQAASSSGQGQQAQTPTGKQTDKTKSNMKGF
Serine/threonine-protein kinase 32B (Homo sapiens), sequence (Q9NY57 whole entry): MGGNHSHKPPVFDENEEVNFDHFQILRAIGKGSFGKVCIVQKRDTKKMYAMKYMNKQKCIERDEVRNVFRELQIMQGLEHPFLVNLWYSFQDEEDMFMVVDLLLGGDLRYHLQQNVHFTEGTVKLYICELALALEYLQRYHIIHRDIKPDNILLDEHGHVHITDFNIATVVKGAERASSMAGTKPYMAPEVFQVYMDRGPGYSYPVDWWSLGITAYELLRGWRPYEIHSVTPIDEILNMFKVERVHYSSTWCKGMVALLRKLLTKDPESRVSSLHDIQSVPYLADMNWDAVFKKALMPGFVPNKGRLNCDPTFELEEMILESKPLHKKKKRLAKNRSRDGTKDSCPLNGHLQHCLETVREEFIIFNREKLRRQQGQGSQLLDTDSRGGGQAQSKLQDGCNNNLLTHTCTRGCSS
RAC-beta serine/threonine-protein kinase (Homo sapiens), sequence (P31751 whole entry): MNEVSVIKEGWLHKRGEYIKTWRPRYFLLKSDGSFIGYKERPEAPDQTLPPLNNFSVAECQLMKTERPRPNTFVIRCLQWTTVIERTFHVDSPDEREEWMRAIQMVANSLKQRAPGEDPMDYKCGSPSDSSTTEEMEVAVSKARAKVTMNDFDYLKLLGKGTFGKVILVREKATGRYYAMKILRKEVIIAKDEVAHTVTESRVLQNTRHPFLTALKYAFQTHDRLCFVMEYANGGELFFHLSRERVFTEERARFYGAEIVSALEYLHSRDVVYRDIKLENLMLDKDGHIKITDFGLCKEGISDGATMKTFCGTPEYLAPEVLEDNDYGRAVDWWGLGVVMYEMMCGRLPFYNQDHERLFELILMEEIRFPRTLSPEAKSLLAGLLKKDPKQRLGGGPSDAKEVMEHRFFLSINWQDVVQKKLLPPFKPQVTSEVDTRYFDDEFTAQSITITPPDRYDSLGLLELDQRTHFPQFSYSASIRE
Serine/threonine-protein kinase OSR1 (Homo sapiens), sequence (O95747 2-527 limits assumed): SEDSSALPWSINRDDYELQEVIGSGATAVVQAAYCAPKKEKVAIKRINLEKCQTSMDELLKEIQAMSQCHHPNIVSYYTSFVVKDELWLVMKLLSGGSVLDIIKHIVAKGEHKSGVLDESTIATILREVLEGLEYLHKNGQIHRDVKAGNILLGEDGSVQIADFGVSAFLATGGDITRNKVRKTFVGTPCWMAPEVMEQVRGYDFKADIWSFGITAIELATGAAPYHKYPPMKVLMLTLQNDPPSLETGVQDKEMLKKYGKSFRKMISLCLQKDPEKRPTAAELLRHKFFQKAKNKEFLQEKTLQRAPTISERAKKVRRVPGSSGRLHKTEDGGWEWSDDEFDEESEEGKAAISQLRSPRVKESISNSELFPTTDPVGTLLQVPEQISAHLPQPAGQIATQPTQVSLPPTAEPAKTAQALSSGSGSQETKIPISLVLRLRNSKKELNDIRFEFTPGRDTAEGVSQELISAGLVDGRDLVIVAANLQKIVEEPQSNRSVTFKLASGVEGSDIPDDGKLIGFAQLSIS
MAP/microtubule affinity-regulating kinase 3 (Homo sapiens), sequence (P27448 whole entry, looked up): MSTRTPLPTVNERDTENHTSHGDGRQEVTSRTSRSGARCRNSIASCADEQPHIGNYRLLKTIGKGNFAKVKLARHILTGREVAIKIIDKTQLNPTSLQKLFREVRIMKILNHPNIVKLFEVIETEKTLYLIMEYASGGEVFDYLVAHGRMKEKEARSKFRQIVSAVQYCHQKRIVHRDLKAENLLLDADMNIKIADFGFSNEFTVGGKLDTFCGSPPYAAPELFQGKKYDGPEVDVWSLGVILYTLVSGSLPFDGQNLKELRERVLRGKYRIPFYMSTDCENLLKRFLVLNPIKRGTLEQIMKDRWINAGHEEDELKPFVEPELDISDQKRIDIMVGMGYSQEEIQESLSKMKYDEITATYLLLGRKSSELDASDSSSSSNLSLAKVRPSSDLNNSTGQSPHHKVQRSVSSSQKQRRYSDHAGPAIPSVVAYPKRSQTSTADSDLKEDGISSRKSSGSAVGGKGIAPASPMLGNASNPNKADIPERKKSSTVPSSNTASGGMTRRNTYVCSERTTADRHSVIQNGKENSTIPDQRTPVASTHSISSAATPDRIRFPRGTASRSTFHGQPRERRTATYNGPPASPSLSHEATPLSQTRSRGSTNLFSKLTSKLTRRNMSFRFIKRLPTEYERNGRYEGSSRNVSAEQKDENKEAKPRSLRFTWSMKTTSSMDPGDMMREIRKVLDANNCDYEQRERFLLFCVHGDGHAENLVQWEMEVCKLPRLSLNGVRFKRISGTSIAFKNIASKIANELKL

As to `C[C@H](Nc1ncnc2nc[nH]c12)c1cc2cccc(Cl)c2c(=O)n1-c1ccccc1`, the Activity in assay [1] was 96%; in [2] it was 96.3%; in assay [3], 111%; in assay [4] it was 137%; in assay [5] it was 97.1%; in assay [6], 92%. Besides, the Activity amounted to 116% in [7], 98.4% in assay [8], 96.7% in assay [9] and 94% in [10].

As to `CC[C@H](Nc1ncnc2[nH]cnc12)c1nc2cccc(F)c2c(=O)n1-c1ccccc1`, the Activity in assay [1] worked out at 95.1%; in assay [2] it was 97%; in assay [3], 107%; in assay [4] it was 130%; in assay [5] it was 93.2%; in assay [6] it was 91.6%. For the same compound, the Activity in [7] was found to be 120%; in assay [8], 103%; in assay [9], 100%; in [10] it was 93.6%.

In the case of `CC(C)Oc1ccc(-c2nn([C@@H](C)c3oc4ccc(F)cc4c(=O)c3-c3cccc(F)c3)c3ncnc(N)c23)cc1F` [UMBRALISIB], the Activity in assay [1] came to 96.9%; in assay [2] it was 97.2%; in [3], 111%; in assay [4], 100%; in assay [5] it was 95.5%; in assay [6] it was 90.8%. The Activity in assay [7] is 114%; in assay [8] it was 100%; in [9] it was 96.5%; in assay [10], 93%.
